Like-named read-outs stand apart in the source and are kept apart here. *1 amine or outer side, *2 acyl side, *3 side chain or, on linkers, in order; H or OH if unused. Where a SMILES comes first, the peptide text is derived from it. Bridges are numbered along the chain shown (N, C = ends). [ ]: non-standard residue; d: D form. The star is where a group is joined. ξ: configuration not given here. Ttds = 1,13-diamino-4,7,10-trioxatridecan-succinamic acid, NCCCOCCOCCOCCCNC(=O)CCC(=O)*; X3 = O=C(O)CN1CCN(CC(=O)O)CCN(CC(=O)NCCCOCCOCCOCCCN*)CCN(CC(=O)O)CC1; NH(1-deoxy-D-glucityl) = OC[C@@H](O)[C@@H](O)[C@H](O)[C@@H](O)CN*; DOTA = O=C(O)CN1CCN(CC(=O)O)CCN(CC(=O)*)CCN(CC(=O)O)CC1; Trp(5-Cl) = N[C@@H](Cc1c[nH]c2ccc(Cl)cc12)C(=O)O; Pyridine(2,6-diCH2) = c1cc(C[*:1])nc(C[*:2])c1; mXylylene = c1cc(C[*:1])cc(C[*:2])c1; X7 = c1cc(CSCCN[*:2])cc(C[*:1])c1; Hyp = O=C(O)[C@@H]1C[C@@H](O)CN1; X1 = O=C(CN1CCC(N[*:1])CC1)[*:2]; Cysteamide = C(CS[*:3])N[*:1]; Suc = O=C(CCC(=O)[*:2])[*:1]; Thp = NC1(C(=O)O)CCOCC1; Aib = CC(C)(N)C(=O)O; ξP = O=C(O)C1CCCN1
Tests used:
[1] = target: human Gastric Inhibitory Peptide Receptor (human) (UniProt P48546); experiment: FACS competition with GIP-057 on CHO-K1-hGIPR cells; pIC50 category B: 7.1-8.0
[2] = target: biotinylated extracellular domain of the human GIP receptor (bioGIPR) (human) (UniProt P48546); experiment: SPR single cycle kinetics, bioGIPR captured on chip; category A: t1/2 >15 min
[3] = target: biotinylated extracellular domain of the human GIP receptor (bioGIPR) (human) (UniProt P48546); experiment: SPR single cycle kinetics, bioGIPR captured on chip; category A: pKD >9.0
[4] = Plasma stability assay, mouse plasma; type: in vitro ADME; conditions: 37° C., % intact compound remaining after 4 h or 24 h
Experimental: In order to determine the stability of selected compounds of the invention in human and mouse plasma, a plasma stability assay was carried out. Such plasma stability assay measures degradation of compounds of the present invention in blood plasma. This is an important characteristic of a compound as compounds, with the exception of pro-drugs, which rapidly degrade in plasma, generally show poor in vivo efficacy. […] The stability is sufficient for the diagnostic, therapeutic and theragnostic use of these compounds according to the present invention.
The plasma stability samples were prepared by spiking 50 μL plasma aliquots (all K2EDTA) with 1 μL of a 0.5 mM compound stock solution in DMS0. After vortexing the samples were incubated in a Thermomixer at 37° C. for 0, 4 and 24 hours. After incubation the samples were stored on ice until further treatment. All samples were prepared in duplicates.
A suitable internal standard was added to each sample (1 μL of a 0.5 mM stock solution in DMSO). Protein precipitation was performed by addition of 250 μL of acetonitrile containing 1% trifluoroacetic acid. After incubation at room temperature for 30 min the precipitate was separated by centrifugation and 150 μL of the supernatant was diluted with 150 μL of 1% aqueous formic acid.
Additionally, recovery was determined by spiking a pure plasma sample that only contained the internal standard after treatment with a certain amount of the compound.
Carry-over was evaluated by analysis of a blank sample (20% acetonitrile) after the highest calibration sample.

[5] = target: T1, GIPR (CHO-K1-hGIPR cells) (Homo sapiens, UniProt P48546); experiment: FACS binding assay; conditions: read-out: pIC50 Category (converted)
T1 construct: host or cells: CHO-K1
T1 sequence (P48546 22-466): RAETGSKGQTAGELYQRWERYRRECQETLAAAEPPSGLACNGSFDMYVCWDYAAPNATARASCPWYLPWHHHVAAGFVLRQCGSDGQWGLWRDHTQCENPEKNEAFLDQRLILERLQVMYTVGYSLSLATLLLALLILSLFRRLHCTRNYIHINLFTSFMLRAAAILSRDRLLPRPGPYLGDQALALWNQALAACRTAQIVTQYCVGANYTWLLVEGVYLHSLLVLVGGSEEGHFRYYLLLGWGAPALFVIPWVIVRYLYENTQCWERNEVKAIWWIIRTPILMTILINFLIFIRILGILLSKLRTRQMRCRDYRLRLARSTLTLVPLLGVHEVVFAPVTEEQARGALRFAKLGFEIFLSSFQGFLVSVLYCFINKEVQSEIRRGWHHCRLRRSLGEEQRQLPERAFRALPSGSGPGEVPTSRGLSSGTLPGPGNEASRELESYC
In short: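 Median fluorescence in the APC channel, measured on washed CHO-K1 cells overexpressing human GIPR, was fitted by four-parameter logistic regression against peptide concentration to yield EC50 or IC50 values. Secondary labelling used APC-streptavidin (1 μg/mL, 30 min, ice).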

[6] = target: T2, human GIP receptor (bioGIPR) (Homo sapiens, UniProt P48546); experiment: Surface plasmon resonance (SPR) based binding assay; conditions: Single Cycle Kinetic mode, 25° C.
T2 construct: Biotinylate extracellular of the human GIP receptor (bioGIPR, Proteros biostructures GmbH, lot #02/2b); purchased Proteros biostructures GmbH lot #02/2b
T2 sequence (P48546 22-138 limits assumed): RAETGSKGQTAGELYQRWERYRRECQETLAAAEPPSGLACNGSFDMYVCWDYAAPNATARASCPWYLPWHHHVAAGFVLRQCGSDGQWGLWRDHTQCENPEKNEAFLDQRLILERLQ
In short: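 Binding was measured at 25 °C by single-cycle kinetics against a reference flow cell, with blank-run and drift correction, after capturing biotinylated GIPR extracellular domain to ~3500 RU. Running buffer: HBST, 0.1% DMSO. A 1:1 Langmuir model gave kinetic rates, KD, t1/2 and pKD.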

[7] = target: human Gastric Inhibitory Peptide Receptor (GIPR) (human) (UniProt P48546); experiment: FACS competition vs biotinylated GIP-057 on CHO-K1-hGIPR cells; category D: pIC50 <=6.0
[8] = competition with 20 nM GIP-057, 4° C., 1 hour

Mouse plasma stability category [4]	IC50 [5, 8] [nM]	pIC50 [7] [pic50]	also measured	Molecule
–	–	–	pIC50 [1]: 7.1 to 8 pic50; t1/2 [2]: > 15 min; pKD [3]: > 9 pkd	AGLU-Glutar-APAc-Asp-Trp-5Clw-Tap(AGLU-Glutar)-Glu-leu-[Cys(2Lut)-Apc(DOTA-glu(AGLU))-Leu-Ile-Cys]-APAc-glu(AGLU)-NH2 (peptide)
B (>80% intact after 4 hours)	10 to 79.4	–	–	CC[C@H](C)[C@@H]1NC(=O)[C@H](CC(C)C)NC(=O)C(C)(C)NC(=O)[C@@H](NC(=O)[C@@H](CC(C)C)NC(=O)[C@H](CCC(=O)O)NC(=O)[C@@H]2CCCN2C(=O)[C@H](Cc2c[nH]c3ccccc23)NC(=O)[C@H](Cc2c[nH]c3ccccc23)NC(=O)[C@H](CC(=O)O)NC(=O)CCC(=O)NCCCOCCOCCOCCCNC(=O)CN2CCN(CC(=O)O)CCN(CC(=O)O)CCN(CC(=O)O)CC2)CSCc2cccc(c2)CSCCNC1=O [GIP-129, DOTA-Ttds-Asp-Trp-Trp-Pro-Glu-leu-[Cys(3MeBn)-Aib-Leu-Ile-AET]] ({X3-Suc}-DWWPE[dL]C[Aib]LI; linker 7-C via X7)
A (>80% intact after 24 hours)	< 10	–	t1/2 Category ([6]; SPR dissociation half-life): A (t1/2 values>15 min); Kd ([6]; SPR, 1:1 Langmuir binding model, read-out: pKD Category (converted)): < 1 nM	CC[C@H](C)[C@@H]1NC(=O)[C@H](CC(C)C)NC(=O)C2(CCOCC2)NC(=O)[C@@H](NC(=O)[C@@H](CC(C)C)NC(=O)[C@H](CCC(=O)O)NC(=O)[C@@H]2C[C@@H](O)CN2C(=O)[C@H](Cc2c[nH]c3ccc(Cl)cc23)NC(=O)[C@H](Cc2c[nH]c3ccccc23)NC(=O)[C@H](CC(=O)O)NC(=O)CN2CCC(NC(=O)[C@@H](CCC(=O)NC[C@H](O)[C@@H](O)[C@H](O)[C@H](O)CO)NC(=O)CN3CCN(CC(=O)O)CCN(CC(=O)O)CCN(CC(=O)O)CC3)CC2)CSCc2cccc(n2)CSC[C@@H](C(=O)NC2CCN(CC(=O)N[C@H](CCC(=O)NC[C@H](O)[C@@H](O)[C@H](O)[C@H](O)CO)C(N)=O)CC2)NC1=O [GIP-005, DOTA-glu(AGLU)-APAc-Asp-Trp-5Clw-Hyp-Glu-leu-[Cys(2Lut)-Thp-Leu-Ile-Cys]-APAc-glu(AGLU)-NH2] ({DOTA}-[dE](NH(1-deoxy-D-glucityl))[X1]DW[Trp(5-Cl)][Hyp]E[dL]C[Thp]LIC[X1][dE](NH(1-deoxy-D-glucityl))-NH2; linker 9-13 via Pyridine(2,6-diCH2))
B (>80% intact after 4 hours)	10 to 79.4	–	–	CC[C@H](C)[C@@H]1NC(=O)[C@H](CC(C)C)NC(=O)C(C)(C)NC(=O)[C@@H](NC(=O)[C@@H](CC(C)C)NC(=O)[C@H](CCC(=O)O)NC(=O)[C@@H]2CCCN2C(=O)[C@H](Cc2c[nH]c3ccccc23)NC(=O)[C@H](Cc2c[nH]c3ccccc23)NC(=O)[C@H](CC(=O)O)NC(=O)CCC(=O)NCCCOCCOCCOCCCNC(=O)CN2CCN(CC(=O)O)CCN(CC(=O)O)CCN(CC(=O)O)CC2)CSCc2cccc(c2)CSC[C@@H](C(N)=O)NC1=O [GIP-128, DOTA-Ttds-Asp-Trp-Trp-Pro-Glu-leu-[Cys(3MeBn)-Aib-Leu-Ile-Cys]-NH2] ({X3-Suc}-DWWPE[dL]C[Aib]LIC-NH2; linker 7-11 via mXylylene)
–	–	< 6	–	Ac-Asp-Trp-1Ni-Pro-Glu-Thi-[Cys(3MeBn)-Aib-Leu-Ile-Cys]-NH2 (peptide)
B (>80% intact after 4 hours)	–	–	IC50 ([5]; competition with 20 nM GIP-057, 4° C. for 1 hour): 100 to 794 nM	CC[C@H](C)[C@@H]1NC(=O)[C@H](CC(C)C)NC(=O)C(C)(C)NC(=O)[C@@H](NC(=O)[C@H](CC(C)C)NC(=O)[C@@H](CCC(=O)O)NC(=O)C2CCCN2C(=O)[C@H](Cc2c[nH]c3ccccc23)NC(=O)[C@H](Cc2c[nH]c3ccccc23)NC(=O)[C@H](CC(=O)O)NC(=O)CCC(=O)NCCCOCCOCCOCCCNC(=O)CN2CCN(CC(=O)O)CCN(CC(=O)O)CCN(CC(=O)O)CC2)CSCc2cccc(c2)CSC[C@@H](C(N)=O)NC1=O (stereo partly drawn) [GIP-270, DOTA-Ttds-Asp-Trp-Trp-Pro-glu-Leu-[Cys(3MeBn)-Aib-Leu-Ile-Cys]-NH2] ({X3-Suc}-DWW[ξP][dE]LC[Aib]LIC-NH2; linker 7-11 via mXylylene)
–	–	< 6	–	HO-Succinyl-Trp-Trp-Pro-Glu-leu-[Cys(3MeBn)-ala-Leu-Ile-Cys]-Ttds-Lys(DOTA)-NH2 (peptide)
–	–	< 6	–	{DOTA-Ttds}-WDP[Trp(5-Cl)][dL]ECLI[Aib][Cysteamide] (linker 7-11 via mXylylene) [DOTA-Ttds-Trp-Asp-Pro-5Clw-leu-Glu-[Cys(3MeBn)-Leu-Ile-Aib-AET]]

Source: patent publication US20250296971A1, “GASTRIC INHIBITORY PEPTIDE RECEPTOR LIGANDS” (priority 2021, published 2025)
